# Test results as given in paper PMC8455565 (Scientific Reports, 2021).
# pIC50: −log10 of the molar value.
# Columns and labels:
# [1] = biological target: T1, JAK3 (Homo sapiens, UniProt P52333); assay: Kinase selectivity biochemical assay, JAK3
# T1 sequence (P52333 1-1124): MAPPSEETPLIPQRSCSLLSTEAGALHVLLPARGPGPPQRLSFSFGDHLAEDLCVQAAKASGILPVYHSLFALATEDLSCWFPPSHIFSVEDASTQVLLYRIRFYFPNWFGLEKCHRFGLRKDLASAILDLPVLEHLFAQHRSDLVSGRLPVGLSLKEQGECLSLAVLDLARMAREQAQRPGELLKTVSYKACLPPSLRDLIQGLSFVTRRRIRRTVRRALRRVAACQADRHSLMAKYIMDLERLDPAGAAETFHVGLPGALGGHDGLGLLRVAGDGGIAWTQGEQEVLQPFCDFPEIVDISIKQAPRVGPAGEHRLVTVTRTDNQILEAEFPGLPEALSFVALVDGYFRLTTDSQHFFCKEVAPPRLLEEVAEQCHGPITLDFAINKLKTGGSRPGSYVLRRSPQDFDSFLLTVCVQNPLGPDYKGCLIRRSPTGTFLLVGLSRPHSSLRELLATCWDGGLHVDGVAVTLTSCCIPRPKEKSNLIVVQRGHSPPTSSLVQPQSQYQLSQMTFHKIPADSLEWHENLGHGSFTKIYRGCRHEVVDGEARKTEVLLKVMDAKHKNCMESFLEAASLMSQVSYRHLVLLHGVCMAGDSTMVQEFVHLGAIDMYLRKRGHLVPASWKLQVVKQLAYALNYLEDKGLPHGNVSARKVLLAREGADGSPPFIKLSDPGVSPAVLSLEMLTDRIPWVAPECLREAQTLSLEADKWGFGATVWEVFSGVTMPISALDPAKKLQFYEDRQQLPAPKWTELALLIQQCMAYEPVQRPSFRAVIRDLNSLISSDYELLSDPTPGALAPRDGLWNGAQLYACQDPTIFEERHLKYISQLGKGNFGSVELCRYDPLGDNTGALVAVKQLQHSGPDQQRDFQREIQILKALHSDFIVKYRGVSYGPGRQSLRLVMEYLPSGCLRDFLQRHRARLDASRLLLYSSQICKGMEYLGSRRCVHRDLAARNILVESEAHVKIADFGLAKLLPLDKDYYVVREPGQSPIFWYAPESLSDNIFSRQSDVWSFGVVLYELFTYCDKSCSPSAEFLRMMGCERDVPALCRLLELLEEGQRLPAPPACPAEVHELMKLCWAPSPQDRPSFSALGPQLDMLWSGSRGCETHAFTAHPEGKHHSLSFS
# [2] = biological target: T2, TEC (Homo sapiens, UniProt P42680); assay: Kinase biochemical assay (FRET), TEC; settings: read-out: inhibitory activity on TEC
# T2 sequence (P42680 1-631): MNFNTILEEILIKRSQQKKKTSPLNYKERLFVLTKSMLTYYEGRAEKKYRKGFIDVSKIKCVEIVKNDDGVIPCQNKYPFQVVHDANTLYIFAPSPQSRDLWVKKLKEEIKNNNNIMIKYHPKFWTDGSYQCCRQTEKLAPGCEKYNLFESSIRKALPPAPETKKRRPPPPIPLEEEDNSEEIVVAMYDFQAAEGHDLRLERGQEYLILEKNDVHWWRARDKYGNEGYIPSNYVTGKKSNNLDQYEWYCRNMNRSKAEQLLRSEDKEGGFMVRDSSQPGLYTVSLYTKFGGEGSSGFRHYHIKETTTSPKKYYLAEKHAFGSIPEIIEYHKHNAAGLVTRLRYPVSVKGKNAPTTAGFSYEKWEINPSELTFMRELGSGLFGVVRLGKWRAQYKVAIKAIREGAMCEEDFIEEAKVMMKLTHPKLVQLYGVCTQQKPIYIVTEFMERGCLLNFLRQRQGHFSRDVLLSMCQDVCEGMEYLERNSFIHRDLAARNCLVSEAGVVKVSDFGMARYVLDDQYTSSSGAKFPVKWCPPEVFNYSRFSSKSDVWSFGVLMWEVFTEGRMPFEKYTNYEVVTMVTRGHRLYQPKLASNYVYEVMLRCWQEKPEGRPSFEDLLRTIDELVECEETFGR
# [3] = system: CIA model rats; assay: Histopathological assessment of arthritis in CIA rats; assay type: in vivo, rat; settings: for Histological assessment (Means of the 4 indexes): mean ± SEM
# Experimental: Briefly, the hind legs of each rat were fixed with 10% formalin, decalcified in 5% formic acid, embedded in paraffin, and cut for pathological staining. Arthritis, bone erosion and synovitis were determined by hematoxylin and eosin (H&E) staining, and cartilage damage was evaluated by safranin O staining. All parameters were scored on a scale of 0 to 4 based on severity according to the following criteria: 0 = no erosion, 1 = mild (focal subchondral erosion), 2 = moderate (multiple subchondral erosions), 3 = high (multiple subchondral erosions and focal erosion of the talus), and 4 = maximum (multiple erosions of the tarsal and metatarsal bones). This test was conducted by the Department of Pathology of Asan Medical Center (University of Ulsan College of Medicine, Republic of Korea).
# [4] = system: CD8+ Memory (CD3+CD28); assay: High-dimensional phosphorylation analysis, CD8+ Memory (CD3+CD28); assay type: cell-based, human; settings: 30 µM, 5'
# Experimental: (§1) The analysis measured 94 intracellular signaling nodes (81 phosphorylation sites, 10 total protein levels and 3 methylation/acetylation sites) in stimulated immune cells, including B cells (IgM plus CD40L), CD4 + and CD8 + T cells (IL-2; CD3 plus CD28), monocytes (M-CSF), NK cells (IL-2), and granulocytes (LPS).
# [5] = system: CD4+ Memory (CD3+CD28); assay: High-dimensional phosphorylation analysis, CD4+ Memory (CD3+CD28); assay type: cell-based, human; settings: 30 µM, 5'
# Experimental: as §1
# [6] = system: STAT5 (Y694); assay: IL-2-stimulated STAT5 phosphorylation (JAK3 signaling) in T and NK cells; assay type: cell-based, human; settings: 30 μM
# Experimental: as §1
# [7] = 3 mg/kg, ankle joints, vs CIA control
smiles,measurement,setting,value
C=CC(=O)Nc1cccc(Oc2nc(Nc3ccc(N4CCN(C)CC4)cc3)nc3ccoc23)c1 [Poseltinib],selectivity toward BTK over JAK3,[1],7.5 ×
same,pIC50,[2],> 8.00
same,Histological assessment (Means of the 4 indexes),[3]; 0.3 mg/kg oral once daily,6.9 ± 0.2
same,Histological assessment (Means of the 4 indexes),[3]; 1 mg/kg oral once daily,6.3 ± 0.2
same,Histological assessment (Means of the 4 indexes),[3]; 3 mg/kg oral once daily,4.1 ± 0.2
same,arthritis index reduction,[3]; [7],44%
same,bone erosion index reduction,[3]; [7],38%
same,cartilage degradation index reduction,[3]; [7],37%
same,synovitis index reduction,[3]; [7],37%
same,"BTK phosphorylation, Log2Ratio Stim/Control",[4],1.34
same,"CrL phosphorylation, Log2Ratio Stim/Control",[4],1.59
same,"HS1 phosphorylation, Log2Ratio Stim/Control",[4],0.56
same,"LCK phosphorylation, Log2Ratio Stim/Control",[4],1.52
same,"PLCγ2 phosphorylation, Log2Ratio Stim/Control",[4],2.55
same,"RPS6KA1 phosphorylation, Log2Ratio Stim/Control",[4],0.47
same,"SRC phosphorylation, Log2Ratio Stim/Control",[4],0.80
same,"WIPF1 phosphorylation, Log2Ratio Stim/Control",[4],0.82
same,"ZAP70 phosphorylation, Log2Ratio Stim/Control",[4],1.33
same,"BTK phosphorylation, Log2Ratio Stim/Control",[5],1.21
same,"CD247 phosphorylation, Log2Ratio Stim/Control",[5],2.86
same,"CrkL phosphorylation, Log2Ratio Stim/Control",[5],1.63
same,"LCK phosphorylation, Log2Ratio Stim/Control",[5],1.51
same,"PLCγ2 phosphorylation, Log2Ratio Stim/Control",[5],2.43
same,"PTK2B phosphorylation, Log2Ratio Stim/Control",[5],0.93
same,"SLP76 phosphorylation, Log2Ratio Stim/Control",[5],1.63
same,"Src phosphorylation, Log2Ratio Stim/Control",[5],0.82
same,"ZAP70 phosphorylation, Log2Ratio Stim/Control",[5],1.22
same,IL-2-stimulated phosphorylation of STAT5 (Y694),[6]; CD4 + T cells,inhibited
same,IL-2-stimulated phosphorylation of STAT5 (Y694),[6]; CD8 + T cells,inhibited
same,IL-2-stimulated phosphorylation of STAT5 (Y694),[6]; NK cells,inhibited
